Assay results from patent US11661426B2, “Imidazole-containing inhibitors of ALK2 kinase” (BioCryst Pharmaceuticals, Inc., priority 2017, dated 2023).

target: ALK2 (Homo sapiens (Human), UniProt Q04771); assay: ALK2 inhibition, LanthaScreen Eu Kinase Binding Assay (ThermoFisher Scientific / Life Technologies); details: read-out: Measured Ki (IC50) Value for Compounds: IC50
Experimental: Biochemical assays to measure the inhibitory effects of the compounds were performed by ThermoFisher Scientific (Life Technologies). ALK2 inhibition was tested using LanthaScreen™ Eu Kinase Binding Assay screening protocol.

ALK2, sequence (Q04771 21-509): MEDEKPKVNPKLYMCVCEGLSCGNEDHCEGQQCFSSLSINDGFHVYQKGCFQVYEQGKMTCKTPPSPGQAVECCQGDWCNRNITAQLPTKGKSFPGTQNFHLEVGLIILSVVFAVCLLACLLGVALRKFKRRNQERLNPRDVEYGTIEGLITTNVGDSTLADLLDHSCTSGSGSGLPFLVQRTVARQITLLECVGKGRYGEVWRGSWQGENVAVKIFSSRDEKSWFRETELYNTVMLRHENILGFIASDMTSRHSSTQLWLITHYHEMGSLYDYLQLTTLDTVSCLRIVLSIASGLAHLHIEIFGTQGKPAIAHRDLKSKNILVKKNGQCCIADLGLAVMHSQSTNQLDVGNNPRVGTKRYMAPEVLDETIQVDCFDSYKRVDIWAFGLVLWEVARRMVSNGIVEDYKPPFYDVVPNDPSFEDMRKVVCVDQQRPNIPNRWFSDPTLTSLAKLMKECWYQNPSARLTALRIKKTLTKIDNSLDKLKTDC

Row | IC50 [nM] | SMILES
1 | > 1000 | COc1cc(-n2cnc(Nc3nc(N4CCC[C@H]4CO)c4cccn4n3)c2)ccc1C#N [Compound 258d, (S)-4-(4-((4-(2-(hydroxymethyl)pyrrolidin-1-yl)pyrrolo[2,1-f][1,2,4]triazin-2-yl)amino)-1H-imidazol-1-yl)-2-methoxybenzonitrile]
2 | < 100 | COc1cc(-n2cnc(Nc3nc(N4CCC[C@H]4CO)c4ccc(C(=O)N5CCCCC5)n4n3)c2)cc(OC)c1OC [Compound 259d, (S)-(4-(2-(hydroxymethyl)pyrrolidin-1-yl)-2-((1-(3,4,5-trimethoxyphenyl)-1H-imidazol-4-yl)amino)pyrrolo[2,1-f][1,2,4]triazin-7-yl)(piperidin-1-yl)methanone]
3 | < 100 | COc1cc(-n2cnc(Nc3nc(N4CC[C@H](N(C)C)C4)nc4ccoc34)c2)cc(OC)c1OC [Compound 261a, (S)-2-(3-(dimethylamino)pyrrolidin-1-yl)-N-(1-(3,4,5-trimethoxyphenyl)-1H-imidazol-4-yl)furo[3,2-d]pyrimidin-4-amine]
4 | > 1000 | Cc1cc(OC(F)(F)F)cc(-n2cnc(Nc3nc(N4CCC[C@H]4CO)c4cccn4n3)c2)c1 [Compound 263d, (S)-(1-(2-((1-(3-methyl-5-(trifluoromethoxy)phenyl)-1H-imidazol-4-yl)amino)pyrrolo[2,1-f][1,2,4]triazin-4-yl)pyrrolidin-2-yl)methanol]
5 | < 100 | COc1cc(-n2cnc(Nc3nc4c(c(N5CCC[C@@H]5CO)n3)CCCC4)c2)cc(OC)c1OC [Compound 264b, (R)-(1-(2-((1-(3,4,5-trimethoxyphenyl)-1H-imidazol-4-yl)amino)-5,6,7,8-tetrahydroquinazolin-4-yl)pyrrolidin-2-yl)methanol]
6 | < 100 | COc1cc(-n2cnc(Nc3nc(N4CCC[C@H]4C(N)=O)nc4cc(F)ccc34)c2)cc(OC)c1OC [Compound 266c, (S)-1-(7-fluoro-4-((1-(3,4,5-trimethoxyphenyl)-1H-imidazol-4-yl)amino)quinazolin-2-yl)pyrrolidine-2-carboxamide]
7 | 100 to 1000 | COc1c(O)cc(-n2cnc(Nc3nc(N4CCC[C@H]4CO)nn4cccc34)c2)cc1C(=O)NCC1CC1 [Compound 267i, (S)—N-(cyclopropylmethyl)-3-hydroxy-5-(4-((2-(2-(hydroxymethyl)pyrrolidin-1-yl)pyrrolo[2,1-f][1,2,4]triazin-4-yl)amino)-1H-imidazol-1-yl)-2-methoxybenzamide]
8 | < 100 | COc1cc(-n2cnc(Nc3nc(N4C(=O)CC[C@H]4CO)nc4ccoc34)c2)cc(OC)c1OC [Compound 270a, (S)-5-(hydroxymethyl)-1-(4-((1-(3,4,5-trimethoxyphenyl)-1H-imidazol-4-yl)amino)furo[3,2-d]pyrimidin-2-yl)pyrrolidin-2-one]
9 | < 100 | COc1cc(-n2cnc(Nc3nc(N4CCC[C@@H]4CO)nc4c3CN(C(C)C)C4=O)c2)cc(OC)c1OC [Compound 275a, (R)-2-(2-(hydroxymethyl)pyrrolidin-1-yl)-6-isopropyl-4-((1-(3,4,5-trimethoxyphenyl)-1H-imidazol-4-yl)amino)-5H-pyrrolo[3,4-d]pyrimidin-7(6H)-one]
10 | < 100 | COc1cc(-n2cnc(Nc3nc4c(c(N5CCC[C@H]5CO)n3)COC4)c2)cc(OC)c1OC [Compound 279c, (S)-(1-(2-((1-(3,4,5-trimethoxyphenyl)-1H-imidazol-4-yl)amino)-5,7-dihydrofuro[3,4-d]pyrimidin-4-yl)pyrrolidin-2-yl)methanol]
11 | < 100 | COc1cc(-n2cnc(Nc3nc(N4CCC[C@H]4CO)nc4c3COC4)c2)cc(OC)c1OC [Compound 281b, (S)-(1-(4-((1-(3,4,5-trimethoxyphenyl)-1H-imidazol-4-yl)amino)-5,7-dihydrofuro[3,4-d]pyrimidin-2-yl)pyrrolidin-2-yl)methanol]
12 | < 100 | COc1cc(-n2cnc(Nc3nc(N4CCC[C@@H]4CO)nc4c3COC4)c2)cc(OC)c1OC [Compound 282a, (R)-(1-(4-((1-(3,4,5-trimethoxyphenyl)-1H-imidazol-4-yl)amino)-5,7-dihydrofuro[3,4-d]pyrimidin-2-yl)pyrrolidin-2-yl)methanol]
13 | < 100 | COc1cc(-n2cnc(Nc3nc(N4CCC[C@H]4CO)nc4cc(C(F)(F)F)ccc34)c2)cc(OC)c1OC [Compound 284c, (S)-(1-(7-(trifluoromethyl)-4-((1-(3,4,5-trimethoxyphenyl)-1H-imidazol-4-yl)amino)quinazolin-2-yl)pyrrolidin-2-yl)methanol]
14 | < 100 | COc1cc(-n2cnc(Nc3nc(N4CCC[C@H]4C(N)=O)nc4cc(C(F)(F)F)ccc34)c2)cc(OC)c1OC [Compound 285a, (S)-1-(7-(trifluoromethyl)-4-((1-(3,4,5-trimethoxyphenyl)-1H-imidazol-4-yl)amino)quinazolin-2-yl)pyrrolidine-2-carboxamide]
15 | < 100 | COc1cc(-n2cnc(Nc3nc(N4CCC[C@H]4CO)c4ccc(C(F)(F)F)cc4n3)c2)cc(OC)c1OC [Compound 286b, (S)-(1-(7-(trifluoromethyl)-2-((1-(3,4,5-trimethoxyphenyl)-1H-imidazol-4-yl)amino)quinazolin-4-yl)pyrrolidin-2-yl)methanol]

More lines, now with the values behind:

Row | SMILES | IC50 [nM]
16 | COc1cc(-n2cnc(Nc3nc(N4CCC(F)(F)C4)nc4ccoc34)c2)cc(OC)c1OC [Compound 260a, 2-(3,3-difluoropyrrolidin-1-yl)-N-(1-(3,4,5-trimethoxyphenyl)-1H-imidazol-4-yl)furo[3,2-d]pyrimidin-4-amine] | < 100
17 | OC[C@@H]1CCCN1c1nc(Nc2cn(-c3cccc(OC(F)(F)F)c3)cn2)nn2cccc12 [Compound 262d, (S)-(1-(2-((1-(3-(trifluoromethoxy)phenyl)-1H-imidazol-4-yl)amino)pyrrolo[2,1-f][1,2,4]triazin-4-yl)pyrrolidin-2-yl)methanol] | > 1000
18 | COc1cc(-n2cnc(Nc3nc(N(C)C4CCN(C)CC4)nc4ccoc34)c2)cc(OC)c1OC [Compound 265a, N2-methyl-N2-(1-methylpiperidin-4-yl)-N4-(1-(3,4,5-trimethoxyphenyl)-1H-imidazol-4-yl)furo[3,2-d]pyrimidine-2,4-diamine] | < 100
19 | COc1cc(-n2cnc(Nc3nc(N4CCC[C@H]4CO)nn4cccc34)c2)cc(C(N)=O)c1O [Compound 268b, (S)-2-hydroxy-5-(4-((2-(2-(hydroxymethyl)pyrrolidin-1-yl)pyrrolo[2,1-f][1,2,4]triazin-4-yl)amino)-1H-imidazol-1-yl)-3-methoxybenzamide] | < 100
20 | COc1cc(-n2cnc(Nc3nc(N4CCC[C@H]4CO)nc4cc(F)ccc34)c2)cc(OC)c1OC [Compound 269a, (S)-(1-(7-fluoro-4-((1-(3,4,5-trimethoxyphenyl)-1H-imidazol-4-yl)amino)quinazolin-2-yl)pyrrolidin-2-yl)methanol] | < 100
21 | COc1cc(-n2cnc(Nc3nc(N4CCC[C@H]4CO)nc4cc(N5CCC[C@H]5CO)ccc34)c2)cc(OC)c1OC [Compound 269b, ((2S,2′S)-1,1′-(4-((1-(3,4,5-trimethoxyphenyl)-1H-imidazol-4-yl)amino)quinazoline-2,7-diyl)bis(pyrrolidine-2,1-diyl))dimethanol] | < 100
22 | COc1cc(-n2cnc(Nc3nc4c(c(N5CCC[C@H]5CO)n3)CCC4)c2)cc(OC)c1OC [Compound 271c, (S)-(1-(2-((1-(3,4,5-trimethoxyphenyl)-1H-imidazol-4-yl)amino)-6,7-dihydro-5H-cyclopenta[d]pyrimidin-4-yl)pyrrolidin-2-yl)methanol] | < 100
23 | COc1cc(-n2cnc(Nc3nc4c(c(N5CCC[C@@H]5CO)n3)CCC4)c2)cc(OC)c1OC [Compound 272b, (R)-(1-(2-((1-(3,4,5-trimethoxyphenyl)-1H-imidazol-4-yl)amino)-6,7-dihydro-5H-cyclopenta[d]pyrimidin-4-yl)pyrrolidin-2-yl)methanol] | < 100
24 | COc1cc(-n2cnc(Nc3nc4c(c(N5CCC[C@H]5CO)n3)CS(=O)(=O)CC4)c2)cc(OC)c1OC [Compound 273c, (S)-4-(2-(hydroxymethyl)pyrrolidin-1-yl)-2-((1-(3,4,5-trimethoxyphenyl)-1H-imidazol-4-yl)amino)-7,8-dihydro-5H-thiopyrano[4,3-d]pyrimidine 6,6-dioxide] | < 100
25 | COc1cc(-n2cnc(Nc3nc(N4CCC[C@H]4CO)nc4c3CN(C(C)C)C4=O)c2)cc(OC)c1OC [Compound 274c, (S)-2-(2-(hydroxymethyl)pyrrolidin-1-yl)-6-isopropyl-4-((1-(3,4,5-trimethoxyphenyl)-1H-imidazol-4-yl)amino)-5H-pyrrolo[3,4-d]pyrimidin-7(6H)-one] | < 100
26 | COc1cc(-n2cnc(Nc3nc(N4CCC[C@H]4CO)c4ccc(F)cc4n3)c2)cc(OC)c1OC [Compound 276b, (S)-(1-(7-fluoro-2-((1-(3,4,5-trimethoxyphenyl)-1H-imidazol-4-yl)amino)quinazolin-4-yl)pyrrolidin-2-yl)methanol] | < 100
27 | COc1cc(-n2cnc(Nc3nc(N4CCC[C@@H]4C(N)=O)nc4cc(OC(C)C)ccc34)c2)cc(OC)c1OC [Compound 277a, (R)-1-(7-isopropoxy-4-((1-(3,4,5-trimethoxyphenyl)-1H-imidazol-4-yl)amino)quinazolin-2-yl)pyrrolidine-2-carboxamide] | < 100
28 | COc1cc(-n2cnc(Nc3nc(N4CCC[C@@H]4CO)c4ccc(OC(C)C)cc4n3)c2)cc(OC)c1OC [Compound 278b, (R)-(1-(7-isopropoxy-2-((1-(3,4,5-trimethoxyphenyl)-1H-imidazol-4-yl)amino)quinazolin-4-yl)pyrrolidin-2-yl)methanol] | < 100
29 | COc1cc(-n2cnc(Nc3nc4c(c(N5CCC[C@@H]5CO)n3)COC4)c2)cc(OC)c1OC [Compound 280b, (R)-(1-(2-((1-(3,4,5-trimethoxyphenyl)-1H-imidazol-4-yl)amino)-5,7-dihydrofuro[3,4-d]pyrimidin-4-yl)pyrrolidin-2-yl)methanol] | < 100
30 | COc1cc(-n2cnc(Nc3nc(N4CC[C@@H](CO)C4)c4cccn4n3)c2)cc(OC)c1OC [Compound 283b, (R)-(1-(2-(1-(3,4,5-trimethoxyphenyl)-1H-imidazol-4-ylamino)pyrrolo[1,2-f][1,2,4]triazin-4-yl)pyrrolidin-3-yl)methanol] | < 100
